Test results taken from US6737383B1, “Herbicidal oxadiazolidines” (priority 1999, dated 2004).

Columns and labels:
wild oat [1] = experiment: Test E wild oat; format: in vivo, Avena fatua; conditions: Preemergence
wild oat [2] = experiment: Test B pre/postemergence wild oat; format: in vivo, Avena fatua
How it was run: (§1)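 Response is a visual 0-to-10 score relative to untreated plants, where 0 means no effect and 10 means complete control, taken twelve to sixteen days after application. Treatments went onto soil at planting and onto foliage of 1- to 4-leaf plants, using a surfactant-containing non-phytotoxic solvent.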

morningglory = experiment: Test B pre/postemergence morningglory; format: in vivo, Ipomoea hederacea
How it was run: as §1

winter wheat [3] = experiment: Test E winter wheat; format: in vivo, Triticum aestivum; conditions: Postemergence
Description: […] All plant species were grown using normal greenhouse practices. Crop and weed species include annual bluegrass (Poa annua), blackgrass (Alopecurus myosuroides), black nightshade (Solanum nigra), chickweed (Stellaria media), common poppy (Papaver rhoeas), deadnettle (Lamium amplexicaule), downy brome (Bromus tectorum), field violet (Viola arvensis), galium (Galium aparine), green foxtail (Setaria viridis), Italian ryegrass (Lolium multiflorum), jointed goatgrass (Aegilops cylindrica), kochia (Kochia scoparia), lambsquarters (Chenopodium album), littleseed canarygrass (Phalaris minor), rape (Brassica napus), redroot pigweed (Amaranthus retroflexus), Russian thistle (Salsola kali), scentless chamomile (Matricaria inodora), spring barley (Hordeum vulgare), sugar beet (Beta vulgaris), sunflower (Helianthus annuus), ivyleaf speedwell (Veronica hederaefolia), spring wheat (Triticum aestivum), winter wheat (Triticum aestivum), wild buckwheat (Polygonum convolvulus), wild mustard (Sinapis arvensis), wild oat (Avena fatua), windgrass (Apera spica-venti) and winter barley (Hordeum vulgare).
Treated plants and untreated controls were maintained in a greenhouse for approximately 21 to 28 days, after which all treated plants were compared to untreated controls and visually evaluated. […] A dash response (-) means no test result.

winter wheat [4] = experiment: Test E winter wheat; format: in vivo, Triticum aestivum; conditions: Preemergence
winter barley = experiment: Test E winter barley; format: in vivo, Hordeum vulgare; conditions: Preemergence
blackgrass = experiment: Test E blackgrass; format: in vivo, Alopecurus myosuroides; conditions: Preemergence
velvetleaf = experiment: Test B pre/postemergence velvetleaf; format: in vivo, Abutilon theophrasti
How it was run: as §1

bedstraw = experiment: Test B pre/postemergence bedstraw; format: in vivo, Galium aparine
How it was run: as §1

Italian ryegrass = experiment: Test E Italian ryegrass; format: in vivo, Lolium multiflorum; conditions: Preemergence
green foxtail = experiment: Test E green foxtail; format: in vivo, Setaria viridis; conditions: Preemergence
[5] = Rate 125 g/ha, 0 to 100 scale (0 no effect, 100 complete control)
[6] = Rate 500 g/ha, 0 to 100 scale where 0 is no effect and 100 is complete control
[7] = Postemergence, Rate 62 g/ha, scale 0 to 10, 0 is no effect, 10 is complete control
[8] = Postemergence, Rate 250 g/ha, scale 0 to 10, 0 no effect, 10 complete control
[9] = Preemergence, Rate 125 g/ha, scale 0 to 10 (0 no effect, 10 complete control)
[10] = Preemergence, Rate 250 g/ha, scale of 0 to 10 where 0 is no effect and 10 is complete control
[11] = Preemergence, Rate 500 g/ha, scale 0 (no effect) to 10 (complete control)
[12] = Rate 125 g/ha, Postemergence, scale 0 to 10, 0 no effect, 10 complete control
[13] = Preemergence, Rate 62 g/ha, scale 0 to 10, 0 is no effect, 10 is complete control
[14] = Rate 500 g/ha, Postemergence, 0 to 10 scale (0 no effect, 10 complete control)
[15] = Postemergence, Rate 125 g/ha, scale of 0 to 10 where 0 is no effect and 10 is complete control
[16] = Preemergence, Rate 125 g/ha, scale of 0 to 10 where 0 is no effect and 10 is complete control
[17] = Preemergence, Rate 250 g/ha, scale 0 (no effect) to 10 (complete control)
[18] = Rate 62 g/ha, Preemergence, scale 0 to 10
[19] = Rate 250 g/ha, Postemergence, scale 0 to 10, 0 is no effect, 10 is complete control
[20] = Rate 500 g/ha, Postemergence, scale 0 to 10, 0 is no effect, 10 is complete control
[21] = Rate 500 g/ha, Preemergence, scale 0 to 10 (0 no effect, 10 complete control)

Which results are given for `CC(C)N(C(=O)n1oc(=O)n(-c2ccccc2)c1=O)c1ccc(F)cc1` [Compound 38]?
Plant response rating, Wild oat (wild oat [1]; [5]): 0; Plant response rating, Wild oat (wild oat [1]; [6]): 20; Wild oats plant response rating (wild oat [2]; [7]): 0; Wild oats plant response rating (wild oat [2]; [8]): 0; Plant response rating, Wild oats (wild oat [2]; [9]): 6; Plant response rating, Wild oats (wild oat [2]; [10]): 6; Wild oats plant response rating (wild oat [2]; [11]): 8; Wild oats plant response rating (wild oat [2]; [12]): 0; Morningglory plant response rating (morningglory; [7]): 0; Morningglory plant response rating (morningglory; [8]): 1; Plant response rating, Morningglory (morningglory; [13]): 0; Plant response rating, Morningglory (morningglory; [9]): 0; Plant response rating, Morningglory (morningglory; [10]): 0; Morningglory plant response rating (morningglory; [11]): 0; Morningglory plant response rating (morningglory; [12]): 0; Morningglory plant response rating (morningglory; [14]): 10; Plant response rating, Wheat (winter) (winter wheat [3]; Rate 125 g/ha, 0 to 100 scale): 10; Plant response rating, Wheat (winter) (winter wheat [3]; Rate 250 g/ha, 0 to 100 scale (0 no effect, 100 complete control)): 10; Plant response rating, Wheat (winter) (winter wheat [3]; Rate 500 g/ha, 0 to 100 scale, 0 no effect, 100 complete control): 10; Plant response rating, Wheat (winter) (winter wheat [4]; [5]): 10; Plant response rating, Wheat (winter) (winter wheat [4]; Rate 250 g/ha, 0 to 100 scale): 0; Plant response rating, Wheat (winter) (winter wheat [4]; [6]): 10; Plant response rating, Barley (winter) (winter barley; [5]): 0; Plant response rating, Barley (winter) (winter barley; Rate 250 g/ha, 0 to 100 scale): 0; Plant response rating, Barley (winter) (winter barley; [6]): 0; Plant response rating, Blackgrass (blackgrass; [5]): 25; Plant response rating, Blackgrass (blackgrass; Rate 250 g/ha, 0 to 100 scale): 45; Plant response rating, Blackgrass (blackgrass; [6]): 35; Velvetleaf plant response rating (velvetleaf; [7]): 0; Velvetleaf plant response rating (velvetleaf; [8]): 0; Plant response rating, Velvetleaf (velvetleaf; [13]): 0; Plant response rating, Velvetleaf (velvetleaf; [9]): 0; Plant response rating, Velvetleaf (velvetleaf; [10]): 0; Velvetleaf plant response rating (velvetleaf; [11]): 0; Velvetleaf plant response rating (velvetleaf; [12]): 0; Bedstraw plant response rating (bedstraw; [7]): 0; Bedstraw plant response rating (bedstraw; [8]): 0; Plant response rating, Bedstraw (bedstraw; [13]): 0; Plant response rating, Bedstraw (bedstraw; [9]): 0; Plant response rating, Bedstraw (bedstraw; [10]): 0; Bedstraw plant response rating (bedstraw; [11]): 0; Bedstraw plant response rating (bedstraw; [12]): 0; Bedstraw plant response rating (bedstraw; [14]): 5; Plant response rating, I. Ryegrass (Italian ryegrass; [5]): 0; Plant response rating, I. Ryegrass (Italian ryegrass; Rate 250 g/ha, 0 to 100 scale): 20; Plant response rating, I. Ryegrass (Italian ryegrass; [6]): 80; Plant response rating, Green foxtail (green foxtail; [5]): 80; Plant response rating, Green foxtail (green foxtail; Rate 250 g/ha, 0 to 100 scale): 90; Plant response rating, Green foxtail (green foxtail; [6]): 100

For `CC(C)N(C(=O)n1oc(=O)n(CC2=NOCCO2)c1=O)c1ccc(Cl)cc1` [Compound 740], which “Plant response rating, Wild oats” value (wild oat [2]; [7]) is on record?
Its value is 0.

What about the “Wild oats plant response rating” value (wild oat [2]; [15]) of the same compound?
The value was 0.

What about the “Plant response rating, Wild oats” value (wild oat [2]; [16]) of the same compound?
The value was 0.

And the “Wild oats plant response rating” value (wild oat [2]; [17])?
The value was 2.

What about the “Wild oats plant response rating” value (wild oat [2]; [18]) of the same compound?
The value was 0.

What about the “Wild oats plant response rating” value (wild oat [2]; [19]) of the same compound?
The value was 0.

What about the “Wild oats plant response rating” value (wild oat [2]; [20]) of the same compound?
Its value is 0.

What about the “Wild oats plant response rating” value (wild oat [2]; [21]) of the same compound?
Its value is 6.

And the “Plant response rating, Morningglory” value (morningglory; [7])?
Its value is 2.

And the “Morningglory plant response rating” value (morningglory; [15])?
The value was 3.

And the “Plant response rating, Morningglory” value (morningglory; [16])?
The value was 0.

What about the “Morningglory plant response rating” value (morningglory; [17]) of the same compound?
The value was 0.

What about the “Morningglory plant response rating” value (morningglory; [18]) of the same compound?
The value was 0.

What about the “Morningglory plant response rating” value (morningglory; [19]) of the same compound?
The value was 3.

What about the “Morningglory plant response rating” value (morningglory; [20]) of the same compound?
The value was 7.

And the “Morningglory plant response rating” value (morningglory; [21])?
Its value is 0.

And the “Plant response rating, Velvetleaf” value (velvetleaf; [7])?
The value was 0.

And the “Velvetleaf plant response rating” value (velvetleaf; [15])?
Its value is 0.

What about the “Plant response rating, Velvetleaf” value (velvetleaf; [16]) of the same compound?
Its value is 0.

What about the “Velvetleaf plant response rating” value (velvetleaf; [17]) of the same compound?
Its value is 0.

What about the “Velvetleaf plant response rating” value (velvetleaf; [18]) of the same compound?
The value was 0.

What about the “Velvetleaf plant response rating” value (velvetleaf; [19]) of the same compound?
The value was 2.

What about the “Velvetleaf plant response rating” value (velvetleaf; [20]) of the same compound?
Its value is 2.

And the “Velvetleaf plant response rating” value (velvetleaf; [21])?
The value was 3.

And the “Plant response rating, Bedstraw” value (bedstraw; [7])?
The value was 0.

And the “Bedstraw plant response rating” value (bedstraw; [15])?
The value was 0.

What about the “Plant response rating, Bedstraw” value (bedstraw; [16]) of the same compound?
Its value is 0.

And the “Bedstraw plant response rating” value (bedstraw; [17])?
Its value is 0.

What about the “Bedstraw plant response rating” value (bedstraw; [18]) of the same compound?
The value was 0.

What about the “Bedstraw plant response rating” value (bedstraw; [20]) of the same compound?
Its value is 0.

What about the “Bedstraw plant response rating” value (bedstraw; [21]) of the same compound?
The value was 0.

Which results are given for `CC(C)N(C(=O)n1oc(=O)n(CCN(C)C(=O)c2ccccc2)c1=O)c1ccc(F)cc1` [Compound 741]?
Plant response rating, Wild oats (wild oat [2]; [7]): 0; Wild oats plant response rating (wild oat [2]; [15]): 0; Plant response rating, Wild oats (wild oat [2]; [16]): 0; Wild oats plant response rating (wild oat [2]; [17]): 0; Wild oats plant response rating (wild oat [2]; [18]): 0; Wild oats plant response rating (wild oat [2]; [19]): 3; Wild oats plant response rating (wild oat [2]; [21]): 7; Morningglory plant response rating (morningglory; [15]): 1; Plant response rating, Morningglory (morningglory; [16]): 0; Morningglory plant response rating (morningglory; [17]): 0; Morningglory plant response rating (morningglory; [18]): 0; Morningglory plant response rating (morningglory; [19]): 5; Morningglory plant response rating (morningglory; [20]): 3; Morningglory plant response rating (morningglory; [21]): 0; Plant response rating, Velvetleaf (velvetleaf; [7]): 0; Velvetleaf plant response rating (velvetleaf; [15]): 0; Plant response rating, Velvetleaf (velvetleaf; [16]): 3; Velvetleaf plant response rating (velvetleaf; [17]): 3; Velvetleaf plant response rating (velvetleaf; [18]): 0; Velvetleaf plant response rating (velvetleaf; [19]): 0; Velvetleaf plant response rating (velvetleaf; [20]): 1; Velvetleaf plant response rating (velvetleaf; [21]): 3; Plant response rating, Bedstraw (bedstraw; [7]): 0; Bedstraw plant response rating (bedstraw; [15]): 0; Plant response rating, Bedstraw (bedstraw; [16]): 0; Bedstraw plant response rating (bedstraw; [17]): 0; Bedstraw plant response rating (bedstraw; [18]): 0; Bedstraw plant response rating (bedstraw; [19]): 4; Bedstraw plant response rating (bedstraw; [20]): 9; Bedstraw plant response rating (bedstraw; [21]): 5
